According to ChEMBL document CHEMBL5230142, “Natural spirocyclic alkaloids and polyphenols as multi target dementia leads” (Bioorg Med Chem, 2021):

Columns and labels:
VSMC [1] = assay: Cytotoxicity against rat VSMC cells assessed as reduction in cell viability at 50 uM measured after 4 days; format: toxicity, cell-based; settings: 96 h, time 4 day
VSMC [2] = assay: Cytotoxicity against rat VSMC cells assessed as reduction in cell viability at 20 uM measured after 4 days; format: toxicity, cell-based; settings: 96 h, time 4 day
VSMC [3] = assay: Cytotoxicity against rat VSMC cells assessed as reduction in cell viability at 5 uM measured after 4 days; format: toxicity, cell-based; settings: 96 h, time 4 day
[4] = biological target: T1, Melatonin receptor type 1B (Homo sapiens, UniProt P49286); assay: Agonist activity at human melatonin MT2 receptor stably expressing in human HEK293 cells; format: cell-based
T1 sequence (P49286 whole entry): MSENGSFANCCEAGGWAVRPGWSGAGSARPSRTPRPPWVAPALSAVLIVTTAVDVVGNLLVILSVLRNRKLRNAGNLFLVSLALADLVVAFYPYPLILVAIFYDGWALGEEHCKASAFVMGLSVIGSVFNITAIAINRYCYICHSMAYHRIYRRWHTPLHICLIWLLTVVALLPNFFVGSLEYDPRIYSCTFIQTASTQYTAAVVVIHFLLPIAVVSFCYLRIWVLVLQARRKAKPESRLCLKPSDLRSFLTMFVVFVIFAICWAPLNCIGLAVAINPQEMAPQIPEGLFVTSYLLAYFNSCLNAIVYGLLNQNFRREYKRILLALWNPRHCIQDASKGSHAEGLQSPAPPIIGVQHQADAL

[5] = biological target: Melatonin receptor type 1A (Homo sapiens, UniProt P48039); assay: Agonist activity at human melatonin MT1 receptor stably expressing in human HEK293 cells; format: cell-based
Melatonin receptor type 1A, sequence (P48039 whole entry): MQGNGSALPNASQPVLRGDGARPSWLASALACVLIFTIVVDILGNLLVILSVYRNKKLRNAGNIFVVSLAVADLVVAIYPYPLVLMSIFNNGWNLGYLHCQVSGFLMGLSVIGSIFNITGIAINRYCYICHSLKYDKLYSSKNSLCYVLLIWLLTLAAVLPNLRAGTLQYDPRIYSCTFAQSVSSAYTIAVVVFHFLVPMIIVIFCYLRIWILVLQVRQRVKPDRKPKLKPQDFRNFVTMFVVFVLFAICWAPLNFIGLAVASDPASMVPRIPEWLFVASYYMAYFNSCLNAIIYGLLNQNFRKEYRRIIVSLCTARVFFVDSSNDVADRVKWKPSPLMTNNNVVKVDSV

SH-SY5Y [6] = assay: Neuroprotective activity in human SH-SY5Y cells assessed as prevention of glyceraldehyde-induced neurite shortening at 10 uM incubated for 72 hrs by microsocopic analysis; format: functional
[7] = Drug metabolism in RN rat assessed as epimerization ratio at 20 mg/kg, po; format: ADME, organism-based; settings: in vivo, read-out: Drug metabolism
[8] = Oral bioavailability in RN rat at 20 mg/kg; format: ADME, organism-based; settings: in vivo
[9] = biological target: T2, 5-hydroxytryptamine receptor 1A (Homo sapiens, UniProt P08908); assay: Agonist activity at 5HT1A (unknown origin) receptor
T2 sequence (P08908 whole entry): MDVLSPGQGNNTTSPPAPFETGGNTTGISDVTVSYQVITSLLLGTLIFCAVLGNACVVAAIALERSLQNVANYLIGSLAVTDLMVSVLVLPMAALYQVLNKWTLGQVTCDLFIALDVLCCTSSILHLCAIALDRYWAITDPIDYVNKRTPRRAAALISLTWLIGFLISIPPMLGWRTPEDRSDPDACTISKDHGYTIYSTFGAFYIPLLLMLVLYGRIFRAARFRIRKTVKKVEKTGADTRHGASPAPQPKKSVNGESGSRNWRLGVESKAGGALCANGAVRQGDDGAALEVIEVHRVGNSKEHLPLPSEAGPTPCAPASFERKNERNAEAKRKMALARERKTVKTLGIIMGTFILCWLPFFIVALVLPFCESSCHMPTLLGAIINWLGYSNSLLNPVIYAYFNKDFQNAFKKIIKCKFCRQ

[10] = biological target: Gamma-secretase (Homo sapiens) (UniProt Q96BI3+Q9NZ42+Q8WW43+P49768+Q92542+P49810); assay: Binding affinity to his-tagged gamma-secretase (unknown origin) assessed as equilibrium constant by surface plasmon resonance analysis; format: protein-complex assay
Gamma-secretase = assay: Inhibition of gamma-secretase (unknown origin); format: protein-complex assay, Homo sapiens
[11] = biological target: Amyloid-beta precursor protein (Homo sapiens) (UniProt P05067); assay: Inhibition of amyloid beta (unknown origin) at 10 uM relative to control
Amyloid-beta precursor protein (Homo sapiens), sequence (P05067 whole entry, the tested form may be a part): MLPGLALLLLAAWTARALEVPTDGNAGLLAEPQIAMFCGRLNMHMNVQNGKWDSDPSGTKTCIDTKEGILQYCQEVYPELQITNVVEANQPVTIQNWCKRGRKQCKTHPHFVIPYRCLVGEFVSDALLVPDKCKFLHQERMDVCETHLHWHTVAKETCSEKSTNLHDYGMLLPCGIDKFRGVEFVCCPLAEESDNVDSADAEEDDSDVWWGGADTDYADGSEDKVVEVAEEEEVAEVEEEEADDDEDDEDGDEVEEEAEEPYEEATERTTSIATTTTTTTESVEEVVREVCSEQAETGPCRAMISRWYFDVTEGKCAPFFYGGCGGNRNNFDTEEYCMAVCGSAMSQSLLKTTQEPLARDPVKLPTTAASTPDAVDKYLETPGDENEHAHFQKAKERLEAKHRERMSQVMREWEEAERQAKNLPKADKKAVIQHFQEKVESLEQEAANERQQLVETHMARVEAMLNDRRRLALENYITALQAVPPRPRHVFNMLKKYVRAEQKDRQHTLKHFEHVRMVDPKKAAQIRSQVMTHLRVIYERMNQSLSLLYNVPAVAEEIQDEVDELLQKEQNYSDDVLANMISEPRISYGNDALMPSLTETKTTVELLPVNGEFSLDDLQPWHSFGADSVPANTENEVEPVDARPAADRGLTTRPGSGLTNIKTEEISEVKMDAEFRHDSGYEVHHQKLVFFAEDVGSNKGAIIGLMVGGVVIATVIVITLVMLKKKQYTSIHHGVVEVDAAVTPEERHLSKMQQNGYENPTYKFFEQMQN

Acetylcholinesterase [12] = biological target: T3, Acetylcholinesterase (Homo sapiens, UniProt P22303); assay: Inhibition of human recombinant AChE using acetylthiocholine chloride as substrate incubated for 20 mins by DTNB reagent based Ellman's method
T3 sequence (P22303 whole entry): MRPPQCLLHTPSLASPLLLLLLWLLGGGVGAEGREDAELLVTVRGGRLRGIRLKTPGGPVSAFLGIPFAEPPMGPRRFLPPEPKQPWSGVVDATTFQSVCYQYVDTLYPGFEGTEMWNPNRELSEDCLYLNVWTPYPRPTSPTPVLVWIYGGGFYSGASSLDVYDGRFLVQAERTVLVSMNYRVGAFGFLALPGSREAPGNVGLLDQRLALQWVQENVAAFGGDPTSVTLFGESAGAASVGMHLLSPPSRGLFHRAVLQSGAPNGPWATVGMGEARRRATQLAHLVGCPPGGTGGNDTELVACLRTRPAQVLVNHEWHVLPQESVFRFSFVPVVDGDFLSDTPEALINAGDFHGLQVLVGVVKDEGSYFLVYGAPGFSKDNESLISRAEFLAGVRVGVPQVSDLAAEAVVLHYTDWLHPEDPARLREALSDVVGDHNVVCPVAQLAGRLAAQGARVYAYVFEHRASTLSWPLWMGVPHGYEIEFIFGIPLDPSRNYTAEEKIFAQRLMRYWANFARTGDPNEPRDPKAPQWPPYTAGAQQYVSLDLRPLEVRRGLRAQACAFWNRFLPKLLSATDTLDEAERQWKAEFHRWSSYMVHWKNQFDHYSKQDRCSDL

Acetylcholinesterase [13] = biological target: T3, Acetylcholinesterase; assay: Inhibition of AChE (unknown origin) using acetylthiocholine iodide as substrate preincubated for 20 mins by DTNB reagent based Ellman's method
[14] = biological target: Amyloid-beta precursor protein (Homo sapiens) (UniProt P05067); assay: Inhibition of amyloid beta (unknown origin) fibril formation at 20 uM incubated for 7 days by ThT fluorescence assay relative to control; settings: time 7.0 day
[15] = Cmax in mouse plasma at 250 mg/kg, po measured after 24 hrs; format: ADME, organism-based; design: dose 250 mg/kg, time 24 hrs, route po
[16] = biological target: Amyloid-beta precursor protein (Homo sapiens) (UniProt P05067); assay: Inhibition of amyloid beta (unknown origin) assessed as reduction in fibril disaggregation at 20 uM incubated for 7 days by ThT fluorescence assay relative to control; settings: time 7.0 day
Beta-secretase 1 = Beta-secretase 1 (Homo sapiens, UniProt P56817); assay: Inhibition of human BACE1 (1 to 454 residues) using APP harboring Swedish Lys/Met mutant-derived peptide as substrate by FRET assay
Beta-secretase 1, sequence (P56817 whole entry, the tested form may be a part): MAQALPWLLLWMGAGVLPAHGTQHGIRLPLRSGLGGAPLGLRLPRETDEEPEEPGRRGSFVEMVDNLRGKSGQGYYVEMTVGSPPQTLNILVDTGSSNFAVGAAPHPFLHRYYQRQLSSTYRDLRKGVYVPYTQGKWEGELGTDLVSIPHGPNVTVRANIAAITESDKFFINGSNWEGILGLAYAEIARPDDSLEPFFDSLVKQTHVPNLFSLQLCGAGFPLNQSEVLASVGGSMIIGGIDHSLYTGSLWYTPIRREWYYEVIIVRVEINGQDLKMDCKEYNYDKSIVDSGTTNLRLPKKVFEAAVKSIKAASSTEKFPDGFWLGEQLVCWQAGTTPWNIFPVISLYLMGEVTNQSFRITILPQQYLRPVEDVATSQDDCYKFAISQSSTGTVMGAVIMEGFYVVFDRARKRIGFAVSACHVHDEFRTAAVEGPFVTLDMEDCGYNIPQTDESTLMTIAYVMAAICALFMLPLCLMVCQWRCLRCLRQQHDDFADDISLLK

SH-SY5Y [17] = assay: Neuroprotective activity in human SH-SY5Y cells assessed as prevention of glyceraldehyde-induced neurite shortening at 1 uM incubated for 72 hrs by microsocopic analysis; format: functional

With `CC[C@H]1CN2CC[C@]3(C(=O)Nc4ccccc43)C2C[C@@H]1/C(=C\OC)C(=O)OC` (stereo partly drawn) the Activity (VSMC [1]) was 88%, the Activity (VSMC [2]) was 63% and the Activity (VSMC [3]) was 25%.

`Oc1cc(O)c2c(c1)O[C@H](c1ccc(O)c(O)c1)[C@@H](O)C2` [CIANIDANOL] showed an IC50 [4] of 47.3 µM and an IC50 [5] of 25.8 µM.

For `COC(=O)[C@H]1C(=O)N2CC[C@]3(C(=O)Nc4ccccc43)[C@H]2C[C@@H]1c1ccc(-c2cccc(Cl)c2)o1`, the Activity (SH-SY5Y [6]) was 47%.

Work on `CC[C@H]1CN2CC[C@@]3(C(=O)Nc4ccccc43)[C@@H]2C[C@@H]1/C(=C\OC)C(=O)OC` [ISORHYNCHOPHYLLINE] yielded a metabolised [7] of 22% and a bioavailability [8] of 3.3%.

Work on `CC[C@H]1CN2CC[C@]3(C(=O)Nc4ccccc43)[C@@H]2C[C@@H]1/C(=C\OC)C(=O)OC` [RHYNCHOPHYLLINE] yielded a metabolised [7] of 22%, a bioavailability [8] of 25.9% and an EC50 [9] of 45.3 µM.

`COC(=O)[C@@H]1C(=O)N2CC[C@@]3(C(=O)Nc4ccccc43)[C@@H]2C[C@H]1c1ccc(-c2ccc(Cl)c(Cl)c2)o1` gave an Activity (SH-SY5Y [6]) of 61%.

`CC(C)[C@@]1(NC(=O)[C@@H]2C[C@@H]3c4cccc5[nH]cc(c45)C[C@H]3N(C)C2)O[C@@]2(O)[C@@H]3CCCN3C(=O)[C@H](Cc3ccccc3)N2C1=O` [DIHYDROERGOCRISTINE] gave a Ke [10] of 9.8 µM, an IC50 (Gamma-secretase) of 25 µM and an inhibition [11] of 30%.

Compound `C/C=C1/CN2CCc3c([nH]c4ccccc34)[C@@H]2CC1/C(=C\C(=O)OC)OC` (stereo partly drawn) has an IC50 (Acetylcholinesterase [12]) of 10.1 µM and an IC50 (Acetylcholinesterase [13]) of 3.7 µM.

In the case of `Oc1cc(O)c2c(c1)O[C@H](c1ccc(O)c(O)c1)[C@H](O)[C@H]2c1c(O)cc(O)c2c1O[C@H](c1ccc(O)c(O)c1)[C@H](O)C2` [PROCYANIDIN B2], the inhibition [14] is reported as 94%, the Cmax [15] is reported as 160 nM and the inhibition [16] is reported as 63%.

With `CC#Cc1cncc(-c2ccc3c(c2)[C@@]2(CO3)N=C(N)C[C@H]2C(F)(F)F)c1` the IC50 (Beta-secretase 1) was 0.115 µM.

For `COC(=O)[C@@H]1C(=O)N2CC[C@@]3(C(=O)Nc4ccccc43)[C@@H]2C[C@H]1c1ccc(-c2cccc(Cl)c2)o1`, the Activity (SH-SY5Y [6]) was 20%.

Work on `COC(=O)[C@H]1C(=O)N2CC[C@]3(C(=O)Nc4ccccc43)[C@H]2C[C@@H]1c1ccc(-c2ccc(Cl)c(Cl)c2)o1` yielded an Activity (SH-SY5Y [17]) of 42%.
